Data from ChEMBL document CHEMBL1135222, “Anionic cyclophanes as potential reversal agents of muscle relaxants by chemical chelation” (Bioorg Med Chem Lett, 2002).

Columns and labels:
Type in all cases: functional, organism-based
Gallus gallus [1] = species on record: Gallus gallus; assay: Tested for association constant against pancuronium relaxant in chick biventer muscle preparation
Gallus gallus [2] = species on record: Gallus gallus; assay: Concentration that produced 50% reversal of pancuronium induced neuromuscular block in the chick biventer assay
Gallus gallus [3] = species on record: Gallus gallus; assay: Concentration that produced 50% reversal of gallamine induced neuromuscular block in the chick biventer assay
Gallus gallus [4] = species on record: Gallus gallus; assay: Tested for association constant against gallamine relaxant in chick biventer muscle preparation
Gallus gallus [5] = species on record: Gallus gallus; assay: Tested for the reversion of vecuronium-induced block in chick biventer assay

| EC50 (Gallus gallus [2]) [µM] | EC50 (Gallus gallus [3]) [µM] | SMILES | Ka (Gallus gallus [1]) [M⁻¹] | Ka (Gallus gallus [4]) [M⁻¹] | EC50 (Gallus gallus [5]) [µM] |
| --- | --- | --- | --- | --- | --- |
| 292 | 563 | O=C(O)c1cc2ccc1OCc1ccc(cc1)COc1ccc(cc1C(=O)O)Cc1ccc(c(C(=O)O)c1)OCc1ccc(cc1)COc1ccc(cc1C(=O)O)C2 | 2500 | 3280 | – |
| – | – | CN(C)C(=O)Oc1cccc([N+](C)(C)C)c1 [NEOSTIGMINE BROMIDE] | – | – | 0.028 |
| 40 | 104 | O=C(O)c1cc2ccc1OCc1ccc3cc(ccc3c1)COc1ccc(cc1C(=O)O)Cc1ccc(c(C(=O)O)c1)OCc1ccc3cc(ccc3c1)COc1ccc(cc1C(=O)O)C2 | 10400 | 13200 | – |
| 142 | 1030 | O=C(O)c1cc2ccc1OCCCCCOc1ccc(cc1C(=O)O)Cc1ccc(c(C(=O)O)c1)OCCCCCOc1ccc(cc1C(=O)O)C2 | 167 | 608 | – |
